The source of these data is PubChem BioAssay AID248 (DTP/NCI, 2004).

Several values for one entry are separate records, joined by “and”; a condition that tells them apart may be missing. Equal entries are not always repeated. Toxic doses and inconclusive results are not listed.

This experiment has as its system L1210 leukemia ip in BDF1 mice, survival T/C. The experiment in a line: NCI In Vivo Anticancer Drug Screen. Data for tumor model L1210 Leukemia (intraperitoneal) in B6D2F1 (BDF1) mice. Conditions: endpoint: mean survival time, higher = longer survival. Put shortly:
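Tumor was transplanted into mice, which were then dosed with test compound or vehicle alone. Survival was recorded for each group, and the treated figure was expressed relative to the control figure.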

Where [1] appears, read: dose: 100.0 mg/kg/injection, schedule: Q04DX002 (ip), vehicle: Klucel (hydroxypropylcellulose) (HPC).
Setting [2] is: dose: 100.0 mg/kg/injection, schedule: Q04DX003 (ip), vehicle: saline.
Where [3] appears, read: dose: 200.0 mg/kg/injection, schedule: Q04DX003 (ip), vehicle: saline.
Where [4] appears, read: dose: 400.0 mg/kg/injection, schedule: Q04DX003 (ip), vehicle: saline.
The mark [5] stands for this setting: dose: 100.0 mg/kg/injection, schedule: Q01DX009 (ip), vehicle: Klucel (hydroxypropylcellulose) (HPC).
[6] abbreviates: dose: 200.0 mg/kg/injection, schedule: Q01DX009 (ip), vehicle: Klucel (hydroxypropylcellulose) (HPC).

Turning to `Oc1ccccc1CNc1nn[nH]n1`, the T/C by setting is: (dose: 100.0 mg/kg/injection, schedule: Q01DX001 (ip), vehicle: Klucel (hydroxypropylcellulose) (HPC)) 101 % of control; (dose: 200.0 mg/kg/injection, schedule: Q01DX001 (ip), vehicle: Klucel (hydroxypropylcellulose) (HPC)) 108 % of control; (dose: 400.0 mg/kg/injection, schedule: Q01DX001 (ip), vehicle: Klucel (hydroxypropylcellulose) (HPC)) 103 % of control.

Take `CC1CCOC(C)(CO)O1` (stereo not drawn): the T/C was 98 % of control (dose: 100.0 mg/kg/injection, schedule: Q04DX002 (ip), vehicle: saline with Tween-80); 95 % of control (dose: 200.0 mg/kg/injection, schedule: Q04DX002 (ip), vehicle: saline with Tween-80); 98 % of control (dose: 400.0 mg/kg/injection, schedule: Q04DX002 (ip), vehicle: saline with Tween-80).

With `O=C(O)C1CCCCC1C(=O)Nc1ccc(Br)cc1` (stereo not drawn), the T/C by setting is: under setting [1], 100 % of control; (dose: 200.0 mg/kg/injection, schedule: Q04DX002 (ip), vehicle: Klucel (hydroxypropylcellulose) (HPC)) 100 % of control; (dose: 400.0 mg/kg/injection, schedule: Q04DX002 (ip), vehicle: Klucel (hydroxypropylcellulose) (HPC)) 118 % of control.

For the compound `CC1COCC(C)N1` (stereo not drawn), the T/C (dose: 25.0 mg/kg/injection, schedule: Q01DX009 (ip), vehicle: saline) was 101 % of control; the T/C (dose: 50.0 mg/kg/injection, schedule: Q01DX009 (ip), vehicle: saline) is 93 % of control; the T/C (dose: 100.0 mg/kg/injection, schedule: Q01DX009 (ip), vehicle: saline) is 90 % of control; the T/C (dose: 200.0 mg/kg/injection, schedule: Q01DX009 (ip), vehicle: saline) was 90 % of control; the T/C (dose: 400.0 mg/kg/injection, schedule: Q01DX009 (ip), vehicle: saline) was 92 % of control.

On to `O=C(Nc1ccc(C2=NCCN2)cc1)c1ccc(Cl)c(C(=O)Nc2ccc(C3=NCCN3)cc2)c1`, for which the T/C is 97 % of control (dose: 2.0 mg/kg/injection, schedule: Q01DX Z (ip), vehicle: carboxymethylcellulose (CMC)); 102 % of control (dose: 3.75 mg/kg/injection, schedule: Q01DX Z (ip), vehicle: water); 98 % of control (dose: 4.0 mg/kg/injection, schedule: Q01DX Z (ip), vehicle: carboxymethylcellulose (CMC)); 106 % of control (dose: 7.5 mg/kg/injection, schedule: Q01DX Z (ip), vehicle: carboxymethylcellulose (CMC)); 102 % of control (dose: 7.5 mg/kg/injection, schedule: Q01DX Z (ip), vehicle: water); 95 % of control (dose: 15.0 mg/kg/injection, schedule: Q01DX Z (ip), vehicle: carboxymethylcellulose (CMC)). The T/C is 115 % of control and 92 % of control (dose: 15.0 mg/kg/injection, schedule: Q01DX Z (ip), vehicle: saline); 106 % of control (dose: 15.0 mg/kg/injection, schedule: Q01DX Z (ip), vehicle: water); 118 % of control and 97 % of control (dose: 30.0 mg/kg/injection, schedule: Q01DX Z (ip), vehicle: saline); 100 % of control (dose: 60.0 mg/kg/injection, schedule: Q01DX Z (ip), vehicle: saline).

In the case of `O=C1C2C3CCC(O3)C2C(=O)N1C(=O)N1C(=O)C2C3CCC(O3)C2C1=O` (stereo not drawn), the T/C was 101 % of control (dose: 25.0 mg/kg/injection, schedule: Q04DX002 (ip), vehicle: Klucel (hydroxypropylcellulose) (HPC)); 94 % of control (dose: 50.0 mg/kg/injection, schedule: Q04DX002 (ip), vehicle: Klucel (hydroxypropylcellulose) (HPC)); 111 % of control and 89 % of control under setting [1].

For the compound `O=C1CCC(N2C(=O)C3CC=CCC3C2=O)C(=O)N1` (stereo not drawn), the T/C under setting [2] is 104 % of control and 109 % of control; the T/C under setting [3] was 104 % of control and 106 % of control; the T/C under setting [4] was 97 % of control and 112 % of control.

Regarding `CC#CC(C)=O`, the T/C is 100 % of control (dose: 25.0 mg/kg/injection, schedule: Q04DX003 (ip), vehicle: saline); 92 % of control (dose: 50.0 mg/kg/injection, schedule: Q04DX003 (ip), vehicle: saline); 100 % of control under setting [2].

Consider `O=C1c2cc(Br)ccc2-c2cc(Br)c([N+](=O)[O-])c(Br)c21`, for which the T/C runs as follows: (dose: 100.0 mg/kg/injection, schedule: Q01DX001 (ip), vehicle: carboxymethylcellulose (CMC)) 106 % of control; (dose: 200.0 mg/kg/injection, schedule: Q01DX001 (ip), vehicle: carboxymethylcellulose (CMC)) 103 % of control; (dose: 400.0 mg/kg/injection, schedule: Q01DX001 (ip), vehicle: carboxymethylcellulose (CMC)) 97 % of control.

On to `CSc1ccc(NC(=O)Nc2ccc(Cl)cc2C(=O)c2ccccc2)cc1`, for which the T/C was 91 % of control under setting [5] and 88 % of control under setting [6].

As to `CNC(C(=O)OCc1ccccc1)C(C)C` (stereo not drawn), the T/C runs as follows: under setting [2], 112 % of control; under setting [3], 99 % of control; under setting [4], 100 % of control.

`c1ccc(-c2cc(-c3ccncc3)c(-c3ccccc3)nn2)cc1`: the T/C is 102 % of control (dose: 100.0 mg/kg/injection, schedule: Q04DX003 (ip), vehicle: gum acacia); 96 % of control (dose: 200.0 mg/kg/injection, schedule: Q04DX003 (ip), vehicle: gum acacia); 96 % of control (dose: 400.0 mg/kg/injection, schedule: Q04DX003 (ip), vehicle: gum acacia).

With `COC1=CC23CCN(C)C(CCc4cc(OC)c(OC)c(OC)c42)C3=CC1=O` (stereo not drawn), the T/C reads like this: (dose: 25.0 mg/kg/injection, schedule: Q04DX002 (ip), vehicle: saline) 114 % of control; (dose: 50.0 mg/kg/injection, schedule: Q04DX002 (ip), vehicle: saline) 108 % of control; (dose: 100.0 mg/kg/injection, schedule: Q04DX002 (ip), vehicle: saline) 111 % of control; (dose: 200.0 mg/kg/injection, schedule: Q04DX002 (ip), vehicle: saline) 105 % of control; (dose: 400.0 mg/kg/injection, schedule: Q04DX002 (ip), vehicle: saline) 103 % of control.

As for `CCOP(=O)(N1CC1(C)C)N1CC1(C)C` (stereo not drawn), the T/C (dose: 1.0 mg/kg/injection, schedule: Q01DX009 (ip), vehicle: saline) was 100 % of control; the T/C (dose: 2.0 mg/kg/injection, schedule: Q01DX009 (ip), vehicle: saline) was 105 % of control; the T/C (dose: 4.0 mg/kg/injection, schedule: Q01DX009 (ip), vehicle: saline) is 110 % of control; the T/C (dose: 20.0 mg/kg/injection, schedule: Q01DX009 (ip), vehicle: saline) is 161 % of control; the T/C (dose: 25.0 mg/kg/injection, schedule: Q01DX001 (ip), vehicle: other) was 209 % of control; the T/C (dose: 30.0 mg/kg/injection, schedule: Q01DX009 (ip), vehicle: saline) is 209 % of control. Moreover, the T/C reads like this: (dose: 50.0 mg/kg/injection, schedule: Q01DX001 (ip), vehicle: other) 201 % of control; (dose: 52.0 mg/kg/injection, schedule: Q01DX009 (ip), vehicle: Klucel (hydroxypropylcellulose) (HPC)) 177 % of control; (dose: 53.0 mg/kg/injection, schedule: Q01DX001 (ip), vehicle: saline) 152 % of control; (dose: 80.0 mg/kg/injection, schedule: Q01DX001 (ip), vehicle: other) 151 % of control; (dose: 80.0 mg/kg/injection, schedule: Q01DX001 (ip), vehicle: saline) 152 % of control; (dose: 80.0 mg/kg/injection, schedule: Q01DX009 (ip), vehicle: saline) 91 % of control. The T/C was 162 % of control (dose: 120.0 mg/kg/injection, schedule: Q01DX001 (ip), vehicle: other); 273 % of control (dose: 120.0 mg/kg/injection, schedule: Q01DX001 (ip), vehicle: saline); 174 % of control (dose: 177.0 mg/kg/injection, schedule: Q01DX001 (ip), vehicle: saline); 224 % of control (dose: 180.0 mg/kg/injection, schedule: Q01DX001 (ip), vehicle: other); 223 % of control (dose: 200.0 mg/kg/injection, schedule: Q01DX001 (ip), vehicle: other); 226 % of control (dose: 400.0 mg/kg/injection, schedule: Q01DX001 (ip), vehicle: other).

Take `C[n+]1c(-c2cc(C(F)(F)F)cc(C(F)(F)F)c2)c2cc(N)ccc2c2ccc(N)cc21`: for the setting “dose: 100.0 mg/kg/injection, schedule: Q01DX005 (ip), vehicle: water”, the T/C is 97 % of control.

As to `C/C=C/C=N/NC(=O)c1ccc(OC)cc1`, the T/C was 102 % of control under setting [5] and 86 % of control under setting [6].

Consider `CCCCN(CCCC)CC(O)c1cc(-c2cccc(I)c2)nc2c(Cl)cc(Cl)cc12` (stereo not drawn), for which the T/C (dose: 100.0 mg/kg/injection, schedule: Q04DX003 (ip), vehicle: saline with Tween-80) was 90 % of control; the T/C (dose: 200.0 mg/kg/injection, schedule: Q04DX003 (ip), vehicle: saline with Tween-80) was 86 % of control; the T/C (dose: 400.0 mg/kg/injection, schedule: Q04DX003 (ip), vehicle: saline with Tween-80) is 98 % of control.
